Reference: patent US4325970A, “15-Acetyl-prostaglandins” (Hoffmann-La Roche Inc., priority 1980, dated 1982)

Tested on: acid secretion
Experiment: acid secretion in three conscious dog models (Heidenhain pouches, Pavlov pouches or gastric fistulae)
Type: in vivo
Excerpt: These models consisted of concious dogs prepared with Heidenhain pouches, Pavlov pouches or gastric fistulae.

Compound: CCCCC(C)(C)[C@@H](/C=C/C1[C@H](C)CC(=O)[C@@H]1C/C=C\CCCC(=O)O)OC(C)=O (stereo in doubt) [Compound A, (8R,11R,12S,15R,5Z,13E)-15-acetyloxy-11,16,16-trimethyl-9-oxoprosta-5,13-dien-1-oic acid]
- inhibition of acid secretion (50 to 100 μg/kg I.V.): at best, intermittent, slight to moderate inhibition of acid secretion of short duration
- inhibition of acid secretion (oral and intrapouch dose of 10 to 50 μg/kg): at best, intermittent, slight to moderate inhibition of acid secretion of short duration
